Test [1] has as its system hippocampal neurogenesis (Dentate Gyrus). The experiment in a line: in vivo neurogenesis assay (BrdU+ cells in dentate gyrus). More on the design: species or system mice. The settings on record: living mice; vehicle (DMSO) 7.3. In outline: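 New hippocampal cells were tracked by daily BrdU injections and anti-BrdU staining of brain sections. Adult mice (two per pool of ten compounds) got week-long intracerebroventricular infusion by mini-pump, dosed for mid-nanomolar exposure.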

Test [2] concerns the target T1, p70 (NAMPT) (Homo sapiens, UniProt P43490).
T1 construct: endogenous in cells; host or cells: H2122 lung cancer cells
The experiment in a line: binding competition for photo-crosslinking of P7C3-S326 to p70 in H2122 cells. The settings on record: 0.3 μM P7C3-S326 plus 5 μM competitor, p70 band intensity, P7C3-S326 alone compared with plus competitor, vehicle 1.0. In outline:
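Competition for photo-crosslinking: P7C3 analogs (5 uM) were added alongside the 0.3 μM P7C3-S326 probe to H2122 cells for 2 hours before 15 minutes of 306 nm UV irradiation. In-gel fluorescence of the p70 band after click labeling was normalized to DMSO.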

Test [3] addresses T2, Human NAMPT (Homo sapiens, UniProt P43490).
T2 construct: made in house; host or cells: E. coli
The experiment in a line: in vitro NAMPT coupled-enzyme assay (NADH at OD340 nm). The class given is biochemical. To be noted: relative reaction rate normalized by the control reaction run prior to compound addition; vehicle 0.98. As for the experimental part: FIGS. 7A-7C. […] (FIG. 7A) P7C3-A20 was incubated at indicated concentrations in a reaction coupled with three enzymes; NAMPT, NMNAT, and ADH (Experimental Procedures). NAMPT activity was recorded for the indicated period of time at OD340 nm by measuring NADH appearance, leading to the indicated concentration-time plot. […] (FIG. 7B) Analysis of the activities of thirty P7C3 analogs was performed to assess their effects on NAMPT enzymatic activity. The reaction rate was calculated as the slope of the concentration-time curve. Relative reaction rate was normalized by the control reaction run prior to compound addition. Data represents the mean of experimental duplicates. Scatter graphs were plotted to compare the ability of compounds to activate NAMPT relative to their ability to compete away P7C3-S326 crosslinking (top scatter plot), ability to protect cells from doxorubicin-mediated toxicity (middle scatter plot), or ability to facilitate NAD restoration in doxorubicin-treated cells (bottom scatter plot). […] Data are expressed as mean±SD of duplicate independent assays.
The enzymatic activity of recombinant NAMPT was monitored in a coupled assay wherein nicotinamide conversion to NMN was followed by sequential production of NAD (via the NMNAT enzyme) and NADH (via alcohol dehydrogenase). To minimize variation, a control reaction was run in each assay prior to compound addition.
Briefly, NAMPT first converted nicotinamide to NMN, which was followed by sequential production of NAD via nicotinamide mononucleotide adenylyl-transferase (NMNAT). NAD was then reduced to NADH by alcohol dehydrogenase (Sigma) using alcohol as the substrate. The resulting NADH was monitored by OD340 nm. […] 10 mM stocks of P7C3 analogs in DMSO were further diluted in ethanol prior to applying to the reaction. To minimize variation, a control reaction was run in each assay prior to compound addition.

The results in this text go back to patent US9243281B2, “Neuroprotective chemicals and methods for identifying and using same” (Board of Regents of The University of Texas System, priority 2013, dated 2016).

Structures are written as SMILES.

T2 sequence (P43490 whole entry): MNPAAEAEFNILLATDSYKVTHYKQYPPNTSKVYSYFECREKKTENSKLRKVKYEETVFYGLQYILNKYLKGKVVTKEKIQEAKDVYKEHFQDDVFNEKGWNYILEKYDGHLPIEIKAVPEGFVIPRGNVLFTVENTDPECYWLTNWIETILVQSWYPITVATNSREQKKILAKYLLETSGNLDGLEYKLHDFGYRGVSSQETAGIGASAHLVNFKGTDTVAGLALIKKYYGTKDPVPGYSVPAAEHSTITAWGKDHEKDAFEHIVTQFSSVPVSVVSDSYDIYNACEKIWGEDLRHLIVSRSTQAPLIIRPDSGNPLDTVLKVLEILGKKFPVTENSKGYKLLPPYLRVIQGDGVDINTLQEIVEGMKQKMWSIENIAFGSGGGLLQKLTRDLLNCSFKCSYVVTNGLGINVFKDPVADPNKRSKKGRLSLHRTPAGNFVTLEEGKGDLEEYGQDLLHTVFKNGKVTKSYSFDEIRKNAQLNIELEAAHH
T1 sequence (P43490 whole entry): as above

With `[N-]=[N+]=NCC(F)Cn1c2ccc(Br)cc2c2cc(Br)ccc21` (stereo not shown) [S189], the “Neurogenesis # BrdU+ Cells (X10E06)/mm3 Dentate Gyrus” value (shortened to “Neurogenesis # BrdU+ Cells”) in test [1] was 6.9 (X10E06)/mm3. Also, in test [2], the Binding competition is 3.6. This compound came in with an NAMPT activation in test [3] of 1.06.
Consider `COCCOCCOc1ccc(NCC(F)Cn2c3ccc(Br)cc3c3cc(Br)ccc32)cc1` (stereo not shown) [S66], for which, in test [1], the “Neurogenesis # BrdU+ Cells” value is 9.7 (X10E06)/mm3. Besides, the Binding competition in test [2] came to 3.5. This compound also gave an NAMPT activation in test [3] of 1.21.
With `CS(=O)(=O)NC(=O)Cn1c2ccc(Br)cc2c2cc(Br)ccc21` [S232], the “Neurogenesis # BrdU+ Cells” value in test [1] was 8.4 (X10E06)/mm3. For the same compound, in test [2], the Binding competition is 0.9. In addition, in test [3], the NAMPT activation is 1.00.
`N#Cc1[nH]c2ccc(Br)cc2c1N` [S222]: in test [1], the “Neurogenesis # BrdU+ Cells” value is listed as 15.1 (X10E06)/mm3. The Binding competition in test [2] was found to be 1.3. The same compound came in with an NAMPT activation in test [3] of 1.02.
`COc1cccc(S(=O)(=O)CC(F)Cn2c3ccc(Br)cc3c3cc(Br)ccc32)c1` (stereo not shown) [S81]: the “Neurogenesis # BrdU+ Cells” value in test [1] is on record as 12.6 (X10E06)/mm3. Besides, the Binding competition in test [2] is listed as 1.2. In addition, the NAMPT activation in test [3] is on record as 0.96.
Regarding `COc1cccc(NCC(F)(F)Cn2c3ccc(Br)cc3c3cc(Br)ccc32)c1` [S59], the “Neurogenesis # BrdU+ Cells” value in test [1] is 10.7 (X10E06)/mm3. Moreover, the Binding competition in test [2] stood at 1.2. This compound returned an NAMPT activation in test [3] of 1.02.
The matching figures for `FC(F)(COc1ccccc1)Cn1c2ccc(Br)cc2c2cc(Br)ccc21` [S56]: 8.4 (X10E06)/mm3, 1.0 and 1.06.
For `COc1cccc(NC(SC)C(=O)Cn2c3ccc(Br)cc3c3cc(Br)ccc32)c1` (stereo not shown) [S4], in test [1], the “Neurogenesis # BrdU+ Cells” value is listed as 11.7 (X10E06)/mm3. In test [2], the Binding competition amounted to 1.4. This compound also returned an NAMPT activation in test [3] of 1.01.
The matching figures for `Cc1cc2c(cn1)[nH]c1ccc(Br)cc12` [S226]: 12.8 (X10E06)/mm3, 1.9 and 0.96.
On to `Brc1ccc2c(c1)c1cc(Br)ccc1n2Cc1nnn[nH]1` [S233], for which the “Neurogenesis # BrdU+ Cells” value in test [1] is recorded as 7.3 (X10E06)/mm3. Besides, the Binding competition in test [2] is 0.9. Also, the NAMPT activation in test [3] was 0.88.
As to `CC(C)(C)OC(=O)NCC(F)Cn1c2ccc(Br)cc2c2cc(Br)ccc21` (stereo not shown) [S208], the “Neurogenesis # BrdU+ Cells” value in test [1] was 13.5 (X10E06)/mm3. Moreover, the Binding competition in test [2] amounted to 1.2. In test [3], this compound returned an NAMPT activation of 1.16.
Turning to `O=C(Cn1c2ccc(Br)cc2c2cc(Br)ccc21)NS(=O)(=O)c1ccccc1` [S230], in test [1], the “Neurogenesis # BrdU+ Cells” value was 15.3 (X10E06)/mm3. In addition, the Binding competition in test [2] worked out at 1.0. Moreover, the NAMPT activation in test [3] is reported as 1.02.
Turning to `COc1cccc(N(C)CC(F)Cn2c3ccc(Br)cc3c3cc(Br)ccc32)c1` (stereo not shown) [S11], the “Neurogenesis # BrdU+ Cells” value in test [1] is reported as 12.8 (X10E06)/mm3. In test [2], the Binding competition was 2.0. In test [3], this compound had an NAMPT activation of 1.21.
In the case of `COc1cccc(NCC(=O)Cn2c3ccc(Br)cc3c3cc(Br)ccc32)c1` [S3], the “Neurogenesis # BrdU+ Cells” value in test [1] is 9.2 (X10E06)/mm3. Besides, the Binding competition in test [2] is 2.3. In test [3], the NAMPT activation is given as 1.06.
`O=S(=O)(CC(F)Cn1c2ccc(Br)cc2c2cc(Br)ccc21)c1ccc(O)cc1` (stereo not shown) [S103]: the “Neurogenesis # BrdU+ Cells” value in test [1] is reported as 7.0 (X10E06)/mm3. For the same compound, the Binding competition in test [2] was found to be 1.9. In test [3], this compound yielded an NAMPT activation of 0.97.
The matching figures for `COc1cccc(N2CC(Cn3c4ccc(Br)cc4c4cc(Br)ccc43)OC2=O)c1` (stereo not shown) [S12]: 10.8 (X10E06)/mm3, 2.4 and 1.24.
As for `COc1ccc(S(=O)(=O)CC(F)Cn2c3ccc(Br)cc3c3cc(Br)ccc32)cc1` (stereo not shown) [S83], in test [1], the “Neurogenesis # BrdU+ Cells” value is recorded as 12.5 (X10E06)/mm3. Also, in test [2], the Binding competition amounted to 1.0. For the same compound, the NAMPT activation in test [3] was determined as 1.01.
On to `CNCCCN1c2ccccc2CCc2ccccc21.Cl` [S87, Desipramine, reference compound], for which the “Neurogenesis # BrdU+ Cells” value in test [1] is given as 14.7 (X10E06)/mm3. Besides, in test [2], the Binding competition was 1.2.
The matching figures for `COc1cccc(NCC(O)Cn2c3ccc(Br)cc3c3cc(N=[N+]=[N-])ccc32)c1` (stereo not shown) [S47]: 10.1 (X10E06)/mm3 and 5.5.
Turning to `O[C@H](COc1ccccc1)Cn1c2ccc(Br)cc2c2cc(Br)ccc21` [S41], the “Neurogenesis # BrdU+ Cells” value in test [1] is recorded as 15.3 (X10E06)/mm3. In test [2], the Binding competition came out at 3.4.
As to `Cc1ccc2c(c1)c1c(n2CC(O)CNc2ccccc2)CCN(C)C1` (stereo not shown) [S46], the “Neurogenesis # BrdU+ Cells” value in test [1] is 9.2 (X10E06)/mm3. In addition, in test [2], the Binding competition was 1.9.
For the compound `CC(C)(O)Cn1c2ccc(Br)cc2c2cc(Br)ccc21` [S169], in test [1], the “Neurogenesis # BrdU+ Cells” value is recorded as 9.2 (X10E06)/mm3. Besides, the Binding competition in test [2] amounted to 3.0.
For the compound `O=C(O)Cn1c2ccc(Br)cc2c2cc(C(=O)O)ncc21` [S227], in test [1], the “Neurogenesis # BrdU+ Cells” value was 12.9 (X10E06)/mm3. In addition, in test [2], the Binding competition was 0.9.
In the case of `N#Cc1ccc(N(CC(O)COc2ccccc2)c2ccc(Br)cc2)nc1` (stereo not shown) [S136], in test [1], the “Neurogenesis # BrdU+ Cells” value was 6.5 (X10E06)/mm3. In addition, the Binding competition in test [2] stood at 5.7.
On to `NNCCc1ccccc1` [S116, Nardi, reference compound], for which the “Neurogenesis # BrdU+ Cells” value in test [1] is given as 11.0 (X10E06)/mm3. The Binding competition in test [2] came out at 1.2.
In the case of `CC(C)(C)OC(=O)NCCCCCOc1ccc(S(=O)(=O)CC(O)Cn2c3ccc(Br)cc3c3cc(Br)ccc32)cc1` (stereo not shown) [S141], in test [1], the “Neurogenesis # BrdU+ Cells” value is 11.3 (X10E06)/mm3. The Binding competition in test [2] is 2.7.
Regarding `COc1cccc(NC[C@@H](O)Cn2c3ccc(Br)cc3c3cc(Br)ccc32)c1` [S17], in test [1], the “Neurogenesis # BrdU+ Cells” value is listed as 14.9 (X10E06)/mm3. For the same compound, the Binding competition in test [2] is listed as 1.9.
Turning to `COc1c(Br)cc(OC)c2c1c1cc(Br)ccc1n2CC(O)CNc1ccccc1` (stereo not shown) [S160], in test [1], the “Neurogenesis # BrdU+ Cells” value was 13.1 (X10E06)/mm3. The Binding competition in test [2] is given as 4.3.
Regarding `O=C(CCCCCC1SCC2NC(=O)NC21)NCCCCCOc1cccc(NCC(O)Cn2c3ccc(Br)cc3c3cc(Br)ccc32)c1` (stereo not shown) [S219], in test [1], the “Neurogenesis # BrdU+ Cells” value was 8.4 (X10E06)/mm3. Further, in test [2], the Binding competition turned out to be 3.1.
Turning to `OC(COc1ccccc1)Cn1c2c(c3cc(Br)ccc31)CNCC2` (stereo not shown) [S105], the “Neurogenesis # BrdU+ Cells” value in test [1] is reported as 10.8 (X10E06)/mm3. Besides, the Binding competition in test [2] turned out to be 1.2.
Take `CCOC(=O)C1=C[C@]2(CC)CCCN3CCc4c(n1c1ccccc41)[C@@H]32` [S199]: the “Neurogenesis # BrdU+ Cells” value in test [1] is on record as 13.3 (X10E06)/mm3. Moreover, the Binding competition in test [2] came to 1.1.
Regarding `CC(C)(C)NCC(O)CN1c2ccccc2CCc2ccccc21` (stereo not shown) [S145], the “Neurogenesis # BrdU+ Cells” value in test [1] is listed as 12.5 (X10E06)/mm3. The Binding competition in test [2] came to 2.6.
As for `COc1ccc([C@H](CN(C)C)C2(O)CCCCC2)cc1` [S124, Effexor, reference compound], the “Neurogenesis # BrdU+ Cells” value in test [1] is given as 8.9 (X10E06)/mm3. Further, the Binding competition in test [2] is on record as 1.1.
Regarding `NCC(O)CN1c2ccccc2CCc2ccccc21` (stereo not shown) [S140], the “Neurogenesis # BrdU+ Cells” value in test [1] was 11.7 (X10E06)/mm3. The Binding competition in test [2] is reported as 1.2.
`COc1cccc(NCC(C)(O)Cn2c3ccc(Br)cc3c3cc(Br)ccc32)c1` (stereo not shown) [S54]: the “Neurogenesis # BrdU+ Cells” value in test [1] is reported as 16.7 (X10E06)/mm3. Besides, the Binding competition in test [2] is given as 3.8.
For the compound `CCOC(=O)c1cc2c3cc(Br)ccc3n(CC(O)COc3ccccc3)c2cn1` (stereo not shown) [S174], the “Neurogenesis # BrdU+ Cells” value in test [1] was 9.3 (X10E06)/mm3. Further, the Binding competition in test [2] is on record as 1.8.
As to `OC(CN1c2ccccc2CCc2ccccc21)Cn1ccc2ccccc21` (stereo not shown) [S132], the “Neurogenesis # BrdU+ Cells” value in test [1] was 11.4 (X10E06)/mm3. Besides, the Binding competition in test [2] is listed as 1.3.
